Test results as given in publication PMC4502414, “Transforming berberine into its intestine-absorbable form by the gut microbiota” (Scientific Reports, 2015).
“Also recorded” adds a separate entry of the source.

How the values were obtained:
[1] = dhBBR-to-BBR reversion in rat small intestine homogenate; assay type: in vitro ADME; settings: 10-min incubation
Protocol: The rat duodenum, jejunum and ileum were collected separately, washed thoroughly with saline and dried. After being weighed, the tissues were homogenized with saline at a ratio of 1: 2 [w (g) /v (ml)]. DhBBR was dissolved in a mixture of methanol and DMSO at a ratio of 1:1 with a final concentration of 5 mg/ml. Ten microliters of dhBBR (5 mg/ml) was mixed with 1 ml of the homogenates. The samples were then centrifuged at 14,000 g for 5 min, and the supernatants were collected and mixed with an equal volume of ice-cold acetonitrile to terminate the reaction. The samples were centrifuged at 14,000 g for 5 min, and the supernatant was used for the HPLC analysis.

Caco-2 cells = assay: Absorption of BBR and dhBBR in Caco-2 cells; assay type: in vitro ADME; settings: Caco-2
Protocol: (§1) A Caco-2 cell assay was conducted using a method reported previously. […] To determine the rate of drug transport in the apical-to-basolateral direction, 200 μl of the compound working solution was added to the filter well (apical compartment), and 800 μl of HBSS was added to the receiver plate (basolateral compartment). Accordingly, to determine the rate of drug transport in the basolateral-to-apical direction, 800 μl of the compound working solution was added to each well of the receiver plate and 200 μl of HBSS was added to the filter well. The plates were incubated for 30 min at 37 °C with shaking at 150 rpm on a rotary shaker. At the end of the transport period, aliquots of 50 μl were removed directly from the apical and basolateral wells and transferred to wells of new plates. Four volumes of cold methanol containing internal standards were added into each well. The samples were centrifuged at 16,000 g for 15 min. Aliquots of 200 μl of the supernatant were used for the LC-MS/MS analysis.

[2] = Absorption of BBR and dhBBR in Caco-2 cells; assay type: in vitro ADME; settings: human
Protocol: as §1

nitroreductase = molecular target: T1, nitroreductase (Escherichia coli, UniProt P38489); assay: Nitroreductase-mediated BBR reduction, cell-free incubation; assay type: biochemical; settings: BBR with nitroreductase, 37 °C
T1 construct: purchased Sigma-Aldrich Co. (Shanghai, China); host or cells: Escherichia coli
Protocol: BBR was incubated with nitroreductase in intestinal bacteria cultures. The reaction mixture consisted of BBR (50 μg/ml), an NADPH-regenerating system and nitroreductase (5 μg/ml) in a final volume of 1 ml under the protection of N2. After incubation for 0, 2, 4, 6 and 12 h at 37 °C, the reaction was terminated by the addition of 1 ml of ice-cold acetonitrile. The samples were then extracted with 1 ml of ethyl acetate after adding 1 ml of 0.5 M sodium hydroxide solution. The organic phase was evaporated to dryness under a nitrogen flow in a water bath at 40 °C. The residue was dissolved with 200 μl of the mobile phase for further analysis. 2-Iodosobenzoic acid (2-IBA), a specific inhibitor of nitroreductase, was used to verify the role of bacterial nitroreductase.

LDLR = assay: Drug effect on hepatic LDLR gene expression in HepG2 cells; assay type: cell-based, human; settings: 12 h
Protocol: The HepG2 human hepatoma cell line was obtained from the American Tissue Culture Collection (ATCC, USA) and grown in Eagle’s Minimum Essential Medium (GIBCO) supplemented with 10% fetal bovine serum (GIBCO) at 37 °C. For the drug efficacy test, HepG2 cells were cultured for 24 h and then treated with BBR or dhBBR for 12 h. The compounds were freshly prepared in medium prior to use.
The total cellular RNAs were isolated with the SV Total RNA Isolation System (Promega, Madison, WI, USA) following the vendor’s instructions. The total RNAs were reversely transcribed into cDNAs, and quantitative real-time PCR was performed using a 2-Step RT-qPCR System (Promega, Madison, WI, USA), with GAPDH as an internal control. The normalized LDLR mRNA expression levels were plotted as fold levels compared with the untreated control. The following primers were used: LDLR forward, […]; LDLR reverse, […]; GAPDH forward, […]; and GAPDH reverse, […].

[3] = 72-h cumulative fecal excretion of BBR and dhBBR in pseudo germ-free (PGF) and conventional rats; assay type: in vivo, SD rats; settings: oral BBR 200 mg/kg
Protocol: Male SD rats (180–200 g) were orally treated with cefadroxil (100 mg/kg), terramycin (300 mg/kg) and erythromycin (300 mg/kg) twice a day for 3 days, and pharmacokinetic examination was performed 2 days after final administration. The colon contents of the rats were collected on the first and third days after the final treatment with antibiotics, and the germ-free status was confirmed by culturing fecal samples aerobically on a nutrient agar culture medium. Fecal samples from non-antibiotic-exposed rats served as control samples. Before oral administration of a single dose of BBR (200 mg/kg), the PGF rats were fasted overnight with free access to water. […] The samples were stored at −20 °C for further analysis.

[4] = system: rat large intestinal bacteria (RLIB); assay: Conversion of BBR into dhBBR by rat large intestinal bacteria in vitro; assay type: in vitro ADME; settings: BBR incubated with rat large intestinal bacteria
Protocol: The method was reported previously. Briefly, colon contents from six rats were pooled, and 5 g of the sample was transferred into a flask containing the anaerobic medium (100 ml). After thorough mixing, the cultures (which contained intestinal bacteria and anaerobic medium) were pre-incubated under anaerobic conditions with a N2 atmosphere at 37 °C for 60 min. Rutin (10 μl, 1.0 mg/ml in methanol) was used as a positive reference for intestinal metabolism.
Ten microliters of BBR at different concentrations was added into the fresh human or rat intestinal bacteria cultures (990 μl), with methanol (10 μl) as the negative control. The final concentrations of BBR in the incubation system were 100, 10, and 5 μg/ml. The cultures were incubated at 37 °C for 72 h in the presence or absence of human or rat intestinal bacteria.
After termination of the reaction with acetonitrile (1 ml), 50 μl of the internal standard (tetrahydropalmatine, 2.0 mg/ml in methanol) was added into the BBR samples, which were then mixed for 30 sec and centrifuged at 7,500 g for 15 min. The supernatant was dried under nitrogen flow at room temperature, and the residue was dissolved in 100 μl of methanol and centrifuged at 7,500 g for 15 min. The metabolites were analyzed by LC/MS^n-IT-TOF using a previously reported method. […]

T1 sequence (P38489 whole entry): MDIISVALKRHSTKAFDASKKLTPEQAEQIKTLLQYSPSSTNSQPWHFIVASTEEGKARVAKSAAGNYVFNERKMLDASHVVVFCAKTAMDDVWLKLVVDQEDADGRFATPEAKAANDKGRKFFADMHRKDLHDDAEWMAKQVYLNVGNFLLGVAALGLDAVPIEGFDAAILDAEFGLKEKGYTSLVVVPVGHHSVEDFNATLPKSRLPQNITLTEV

SMILES: COc1ccc2c(c1OC)CN1CCc3cc4c(cc3C1=C2)OCO4 [dhBBR, dihydroberberine]
- dhBBR-to-BBR reversion ([1]; duodenum and jejunum homogenate): almost completely
- dhBBR-to-BBR reversion rate ([1]; ileum homogenate): more than 80%
- fold Papp (AP-BL) of dhBBR over BBR (Caco-2 cells): 11.9 fold
- efflux ratio at 30 min, 5 μM ([2]; Caco-2, pH 7.4, read-out: efflux ratio (ER)): 1.58
- Papp A→B at 30 min, 5 μM ([2]; pH 7.4, Caco-2, 5 μM, 30 min): 4.51 ×10⁻⁶ cm/s
- incubation time after which dhBBR became detectable (nitroreductase): 4 h
- up-regulation of LDLR mRNA expression compared with BBR (LDLR): Reduced effect; also recorded: much lower than that of BBR
- 72-h-cumulative dhBBR in feces, % of the giving amount of BBR ([3]; PGF rats): 6.09%
- 72-h-cumulative dhBBR in feces, % of the giving amount of BBR ([3]; untreated (conventional) rats): 18.21%
- incubation time until dhBBR became detectable [4]: ≤ 24 h
